The text below walks through data of ChEMBL document CHEMBL1140203, “cis-4-(Piperazin-1-yl)-5,6,7a,8,9,10,11,11a-octahydrobenzofuro[2,3-h]quinazolin-2-amine (A-987306), a new histamine H4R antagonist that blocks pain responses against carrageenan-induced hyperalgesia” (J Med Chem, 2008).

Among the targets are Histamine H1 receptor (Homo sapiens, UniProt P35367); Histamine H2 receptor (Homo sapiens, UniProt P25021); Vasopressin V1a receptor (Homo sapiens, UniProt P37288).
For the next data set, the target named is T1, Thromboxane A2 receptor (Homo sapiens, UniProt P21731).
T1 sequence (P21731 whole entry): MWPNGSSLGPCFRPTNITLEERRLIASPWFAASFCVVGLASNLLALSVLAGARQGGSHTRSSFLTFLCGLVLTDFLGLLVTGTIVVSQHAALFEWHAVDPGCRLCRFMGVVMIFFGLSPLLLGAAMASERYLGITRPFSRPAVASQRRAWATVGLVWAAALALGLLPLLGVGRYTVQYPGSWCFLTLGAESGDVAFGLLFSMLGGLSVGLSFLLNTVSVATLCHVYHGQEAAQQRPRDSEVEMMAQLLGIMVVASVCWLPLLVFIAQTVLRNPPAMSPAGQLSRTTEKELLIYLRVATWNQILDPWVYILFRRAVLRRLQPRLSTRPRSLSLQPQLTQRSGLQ

Data set [1] addresses 5-hydroxytryptamine receptor 2B (Homo sapiens, UniProt P41595). The class given is functional.
Data set [2] is described as follows: in vivo. The note with it: Sprague-Dawley, rat, po, 10 mg/kg.
Data set [3] is filed under the species Mus musculus. The data set is described as follows: animal or person. To be noted: CD-1(ICR), ip. The class given is functional.
Data set [4] is described as follows: in vivo. The note with it: Sprague-Dawley, rat, ip, 10 mg/kg.
In data set [5] the target is Histamine H3 receptor (Homo sapiens, UniProt Q9Y5N1).
Data set [6] is described as follows: in vivo. To be noted: Sprague-Dawley, rat, po, 10 mg/kg. The source holds these as a separate data set.
For data set [7], the target named is Histamine H4 receptor (Rattus norvegicus) (UniProt Q91ZY1).
A short description of data set [8]: in vivo. To be noted: Sprague-Dawley, rat, po, 10 mg/kg. This is another data set of the same source.
For data set [9], the target named is Histamine H3 receptor (Rattus norvegicus, UniProt Q9QYN8).
Data set [10] is filed under the species Rattus norvegicus. The note with it: in vivo, ip, 100 umol/kg.
The target in data set [11] is T2, 5-hydroxytryptamine receptor 2C (Homo sapiens, UniProt P28335).
T2 sequence (P28335 whole entry): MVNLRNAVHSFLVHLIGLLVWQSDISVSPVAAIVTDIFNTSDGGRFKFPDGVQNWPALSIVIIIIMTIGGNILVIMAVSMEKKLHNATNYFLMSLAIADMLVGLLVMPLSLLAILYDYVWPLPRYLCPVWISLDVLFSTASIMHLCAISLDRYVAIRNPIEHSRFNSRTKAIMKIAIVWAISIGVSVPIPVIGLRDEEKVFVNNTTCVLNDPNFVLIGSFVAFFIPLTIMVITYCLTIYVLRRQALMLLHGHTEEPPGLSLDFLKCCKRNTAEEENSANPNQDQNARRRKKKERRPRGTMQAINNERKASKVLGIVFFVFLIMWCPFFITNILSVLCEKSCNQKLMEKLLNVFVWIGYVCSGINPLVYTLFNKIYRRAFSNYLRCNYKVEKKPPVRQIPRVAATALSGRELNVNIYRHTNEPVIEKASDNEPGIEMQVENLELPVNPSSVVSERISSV

Another data set addresses T3, Substance-K receptor (Homo sapiens, UniProt P21452).
T3 sequence (P21452 whole entry): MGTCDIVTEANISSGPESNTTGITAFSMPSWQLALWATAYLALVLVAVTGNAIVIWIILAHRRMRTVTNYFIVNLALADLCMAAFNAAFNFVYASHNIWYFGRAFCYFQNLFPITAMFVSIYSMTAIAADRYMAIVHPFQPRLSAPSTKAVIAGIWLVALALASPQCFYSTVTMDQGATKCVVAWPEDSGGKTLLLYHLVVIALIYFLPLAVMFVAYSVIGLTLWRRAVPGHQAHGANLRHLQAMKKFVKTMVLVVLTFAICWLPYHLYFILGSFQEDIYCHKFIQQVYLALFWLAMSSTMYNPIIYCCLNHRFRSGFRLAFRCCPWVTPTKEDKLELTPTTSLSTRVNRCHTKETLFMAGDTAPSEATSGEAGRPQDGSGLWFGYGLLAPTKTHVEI

For data set [12], the species on record is Rattus norvegicus. The note with it: in vivo, ip, 30 umol/kg.
Data set [13] concerns the target T4, Histamine H4 receptor (Mus musculus) (UniProt Q91ZY2).
T4 sequence (whole entry): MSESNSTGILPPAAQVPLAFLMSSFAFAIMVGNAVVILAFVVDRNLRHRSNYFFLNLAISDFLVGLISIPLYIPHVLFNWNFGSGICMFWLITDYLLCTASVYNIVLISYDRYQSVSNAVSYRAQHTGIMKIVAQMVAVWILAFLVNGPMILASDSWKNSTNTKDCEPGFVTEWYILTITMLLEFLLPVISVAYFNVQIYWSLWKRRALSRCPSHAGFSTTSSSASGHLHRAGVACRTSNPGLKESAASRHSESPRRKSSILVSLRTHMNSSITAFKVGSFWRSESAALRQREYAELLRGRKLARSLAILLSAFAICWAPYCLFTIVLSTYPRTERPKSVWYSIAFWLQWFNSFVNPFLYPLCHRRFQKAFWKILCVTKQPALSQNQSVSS

Data set [14] in a line: in vivo. The note with it: Sprague-Dawley, rat, ip, 10 mg/kg. This is another data set of the same source.
The nature of data set [15]: in vivo. The note with it: Sprague-Dawley, rat, po, 10 mg/kg. The source holds these as a separate data set.
The next data set in a line: in vitro. To be noted: Sprague-Dawley, rat, plasma.
The target of data set [16] is T5, C-C chemokine receptor type 1 (Homo sapiens, UniProt P32246).
T5 sequence (P32246 whole entry): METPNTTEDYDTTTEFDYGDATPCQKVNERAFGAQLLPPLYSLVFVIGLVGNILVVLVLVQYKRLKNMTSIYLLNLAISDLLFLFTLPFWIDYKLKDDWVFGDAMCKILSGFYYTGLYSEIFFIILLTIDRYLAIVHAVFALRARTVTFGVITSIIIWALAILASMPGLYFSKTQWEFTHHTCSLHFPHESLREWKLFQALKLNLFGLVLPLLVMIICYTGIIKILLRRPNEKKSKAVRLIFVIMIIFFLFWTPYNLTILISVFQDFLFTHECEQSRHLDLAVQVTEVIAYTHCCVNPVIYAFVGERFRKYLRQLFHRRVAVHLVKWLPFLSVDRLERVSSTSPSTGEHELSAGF

Data set [17] can be described thus: in vivo. The note with it: Sprague-Dawley, rat, ip, 10 mg/kg. The source holds these as a separate data set.
For data set [18], the species on record is Mus musculus. The note with it: CD-1(ICR), in vivo, ip, 0.3 umol/kg.
For data set [19], the target named is T6, Histamine H4 receptor (Homo sapiens, UniProt Q9H3N8). The data set is described as follows: biochemical. Format: cell-based, HEK293.
Data set [20] is filed under the species Rattus norvegicus. Description: animal or person. The class given is functional. The note with it: ip.
Data set [21] in a line: in vivo. To be noted: Sprague-Dawley, rat, ip, 10 mg/kg. This is another data set of the same source.
For data set [22], the target named is Histamine H4 receptor (Rattus norvegicus, UniProt Q91ZY1). Description: biochemical. Format: cell-based, HEK293.
For data set [23], the target named is T6, Histamine H4 receptor. The note with it: HEK293.
The species named for data set [24] is Mus musculus. The class given is functional, organism-based, BALB/c.
The target in data set [25] is T7, Muscarinic acetylcholine receptor M5 (Homo sapiens, UniProt P08912).
T7 sequence (P08912 whole entry): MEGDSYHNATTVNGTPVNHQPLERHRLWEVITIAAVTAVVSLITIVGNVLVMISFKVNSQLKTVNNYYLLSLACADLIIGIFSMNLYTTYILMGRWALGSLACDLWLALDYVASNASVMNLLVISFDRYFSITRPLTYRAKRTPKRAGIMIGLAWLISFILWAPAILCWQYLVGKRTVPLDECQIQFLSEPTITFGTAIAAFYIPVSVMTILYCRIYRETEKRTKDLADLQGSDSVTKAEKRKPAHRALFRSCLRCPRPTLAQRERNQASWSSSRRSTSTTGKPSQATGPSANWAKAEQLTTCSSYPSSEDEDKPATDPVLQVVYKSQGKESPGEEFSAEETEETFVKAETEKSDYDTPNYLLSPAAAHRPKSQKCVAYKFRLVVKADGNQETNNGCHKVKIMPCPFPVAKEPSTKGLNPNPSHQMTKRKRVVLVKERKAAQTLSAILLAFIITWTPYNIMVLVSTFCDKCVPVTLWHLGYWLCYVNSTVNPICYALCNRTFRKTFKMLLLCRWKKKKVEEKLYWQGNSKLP

The target of data set [26] is Small conductance calcium-activated potassium channel protein 1 (Homo sapiens, UniProt Q92952).
The target in data set [27] is T2, 5-hydroxytryptamine receptor 2C. The source holds these as a separate data set.

Histamine H2 receptor, sequence (P25021 whole entry): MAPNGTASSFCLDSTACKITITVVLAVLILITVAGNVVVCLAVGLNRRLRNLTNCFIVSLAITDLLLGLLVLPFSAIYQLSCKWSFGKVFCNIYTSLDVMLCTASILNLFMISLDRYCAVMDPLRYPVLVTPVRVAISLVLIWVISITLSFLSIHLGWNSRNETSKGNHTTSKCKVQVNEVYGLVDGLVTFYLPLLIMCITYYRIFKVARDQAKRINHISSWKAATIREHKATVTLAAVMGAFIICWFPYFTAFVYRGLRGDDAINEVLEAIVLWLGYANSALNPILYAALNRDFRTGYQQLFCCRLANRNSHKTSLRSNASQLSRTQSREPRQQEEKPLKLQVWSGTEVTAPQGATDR
Small conductance calcium-activated potassium channel protein 1, sequence (Q92952 whole entry): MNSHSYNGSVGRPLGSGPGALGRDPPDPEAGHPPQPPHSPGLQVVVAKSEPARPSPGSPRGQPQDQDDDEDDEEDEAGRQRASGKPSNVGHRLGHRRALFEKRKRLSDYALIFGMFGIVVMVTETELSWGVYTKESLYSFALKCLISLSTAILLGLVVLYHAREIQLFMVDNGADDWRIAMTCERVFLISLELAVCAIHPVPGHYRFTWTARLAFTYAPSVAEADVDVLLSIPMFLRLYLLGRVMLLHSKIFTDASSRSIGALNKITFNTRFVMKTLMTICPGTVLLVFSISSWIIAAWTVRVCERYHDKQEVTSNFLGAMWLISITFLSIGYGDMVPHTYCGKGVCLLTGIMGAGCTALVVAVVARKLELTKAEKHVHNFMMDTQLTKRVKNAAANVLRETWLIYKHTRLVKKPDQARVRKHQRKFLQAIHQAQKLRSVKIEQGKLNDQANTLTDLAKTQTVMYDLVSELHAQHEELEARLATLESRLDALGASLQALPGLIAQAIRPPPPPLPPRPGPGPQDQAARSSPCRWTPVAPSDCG
T6 sequence (Q9H3N8 whole entry): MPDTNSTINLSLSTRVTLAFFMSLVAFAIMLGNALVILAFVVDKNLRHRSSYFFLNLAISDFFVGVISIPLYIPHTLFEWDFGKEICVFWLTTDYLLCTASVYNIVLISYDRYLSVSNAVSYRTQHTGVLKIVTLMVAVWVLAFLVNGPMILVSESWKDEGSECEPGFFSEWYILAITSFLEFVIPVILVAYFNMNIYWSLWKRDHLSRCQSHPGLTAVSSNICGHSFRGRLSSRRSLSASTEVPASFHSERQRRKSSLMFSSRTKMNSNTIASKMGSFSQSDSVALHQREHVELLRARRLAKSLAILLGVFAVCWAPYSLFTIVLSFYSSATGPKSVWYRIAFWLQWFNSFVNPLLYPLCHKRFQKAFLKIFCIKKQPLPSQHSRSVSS
Vasopressin V1a receptor, sequence (P37288 whole entry): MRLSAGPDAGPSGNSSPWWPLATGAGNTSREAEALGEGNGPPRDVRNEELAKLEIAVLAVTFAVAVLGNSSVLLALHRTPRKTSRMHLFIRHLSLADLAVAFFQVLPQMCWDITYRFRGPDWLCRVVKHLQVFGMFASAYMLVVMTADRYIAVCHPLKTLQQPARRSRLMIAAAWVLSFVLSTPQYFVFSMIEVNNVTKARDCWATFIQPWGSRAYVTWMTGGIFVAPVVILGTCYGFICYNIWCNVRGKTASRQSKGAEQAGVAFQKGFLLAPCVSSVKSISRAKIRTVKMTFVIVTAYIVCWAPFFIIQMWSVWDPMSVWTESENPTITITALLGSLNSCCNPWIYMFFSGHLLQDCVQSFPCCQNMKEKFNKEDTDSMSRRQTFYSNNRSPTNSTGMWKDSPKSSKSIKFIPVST
5-hydroxytryptamine receptor 2B, sequence (P41595 whole entry): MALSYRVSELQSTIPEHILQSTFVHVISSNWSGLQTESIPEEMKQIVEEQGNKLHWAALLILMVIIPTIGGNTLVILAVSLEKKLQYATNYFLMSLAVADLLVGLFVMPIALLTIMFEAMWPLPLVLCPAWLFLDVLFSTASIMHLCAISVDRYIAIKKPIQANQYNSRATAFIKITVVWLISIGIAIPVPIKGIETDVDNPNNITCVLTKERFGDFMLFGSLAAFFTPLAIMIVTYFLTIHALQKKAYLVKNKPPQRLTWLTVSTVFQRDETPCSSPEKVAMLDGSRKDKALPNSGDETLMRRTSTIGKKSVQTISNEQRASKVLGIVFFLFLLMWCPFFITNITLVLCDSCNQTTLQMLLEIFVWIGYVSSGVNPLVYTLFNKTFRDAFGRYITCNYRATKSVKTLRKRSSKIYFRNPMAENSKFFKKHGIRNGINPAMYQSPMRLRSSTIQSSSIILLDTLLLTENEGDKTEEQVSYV
Histamine H1 receptor, sequence (P35367 whole entry): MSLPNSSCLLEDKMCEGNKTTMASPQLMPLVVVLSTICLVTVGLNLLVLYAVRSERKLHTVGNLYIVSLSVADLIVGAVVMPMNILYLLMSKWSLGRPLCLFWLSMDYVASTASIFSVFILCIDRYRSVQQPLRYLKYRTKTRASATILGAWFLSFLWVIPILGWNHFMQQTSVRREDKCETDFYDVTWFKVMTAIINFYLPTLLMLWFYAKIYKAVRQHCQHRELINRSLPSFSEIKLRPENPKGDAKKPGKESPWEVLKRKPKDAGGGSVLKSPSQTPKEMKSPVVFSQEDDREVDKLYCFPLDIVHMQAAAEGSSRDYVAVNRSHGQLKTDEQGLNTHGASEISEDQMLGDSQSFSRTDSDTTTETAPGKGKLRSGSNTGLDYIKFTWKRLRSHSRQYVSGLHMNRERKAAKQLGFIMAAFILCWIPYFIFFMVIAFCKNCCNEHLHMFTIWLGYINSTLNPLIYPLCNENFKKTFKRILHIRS
Histamine H4 receptor (Rattus norvegicus, UniProt Q91ZY1), sequence (Q91ZY1 whole entry): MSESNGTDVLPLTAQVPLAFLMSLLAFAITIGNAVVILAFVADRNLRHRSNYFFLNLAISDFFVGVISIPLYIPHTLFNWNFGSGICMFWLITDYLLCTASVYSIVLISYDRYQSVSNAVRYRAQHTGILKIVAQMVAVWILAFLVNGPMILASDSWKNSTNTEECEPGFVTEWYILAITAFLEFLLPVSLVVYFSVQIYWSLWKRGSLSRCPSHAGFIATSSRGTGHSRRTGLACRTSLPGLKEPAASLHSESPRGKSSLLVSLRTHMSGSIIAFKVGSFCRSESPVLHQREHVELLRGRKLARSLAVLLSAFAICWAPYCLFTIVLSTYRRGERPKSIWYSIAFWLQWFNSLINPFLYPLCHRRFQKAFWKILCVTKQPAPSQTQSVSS
Histamine H4 receptor (Rattus norvegicus), sequence (Q91ZY1 whole entry): as above
Histamine H3 receptor (Rattus norvegicus, UniProt Q9QYN8), sequence (Q9QYN8 whole entry): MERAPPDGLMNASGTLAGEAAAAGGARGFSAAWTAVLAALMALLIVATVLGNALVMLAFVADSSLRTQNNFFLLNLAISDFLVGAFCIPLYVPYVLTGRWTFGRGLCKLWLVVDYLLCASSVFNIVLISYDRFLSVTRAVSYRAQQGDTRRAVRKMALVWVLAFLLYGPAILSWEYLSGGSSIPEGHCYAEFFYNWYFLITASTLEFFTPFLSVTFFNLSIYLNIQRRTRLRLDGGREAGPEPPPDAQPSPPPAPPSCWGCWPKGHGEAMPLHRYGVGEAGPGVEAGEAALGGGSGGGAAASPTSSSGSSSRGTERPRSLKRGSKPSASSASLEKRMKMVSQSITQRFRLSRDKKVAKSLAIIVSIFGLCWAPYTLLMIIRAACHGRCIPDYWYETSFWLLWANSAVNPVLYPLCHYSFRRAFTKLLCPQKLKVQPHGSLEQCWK
Histamine H3 receptor (Homo sapiens, UniProt Q9Y5N1), sequence (Q9Y5N1 whole entry): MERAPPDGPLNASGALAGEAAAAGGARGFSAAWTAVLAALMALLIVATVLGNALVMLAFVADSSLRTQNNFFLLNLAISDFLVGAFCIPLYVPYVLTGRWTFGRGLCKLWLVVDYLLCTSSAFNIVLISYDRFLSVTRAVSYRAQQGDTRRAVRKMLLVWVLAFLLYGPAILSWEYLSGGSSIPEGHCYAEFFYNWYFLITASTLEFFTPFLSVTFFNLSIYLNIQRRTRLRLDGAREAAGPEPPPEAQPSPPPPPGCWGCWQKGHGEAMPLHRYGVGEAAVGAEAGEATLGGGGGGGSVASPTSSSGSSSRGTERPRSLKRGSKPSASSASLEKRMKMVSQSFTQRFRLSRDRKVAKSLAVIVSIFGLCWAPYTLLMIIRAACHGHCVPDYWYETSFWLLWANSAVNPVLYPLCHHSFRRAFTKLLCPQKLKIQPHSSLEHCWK

At Thromboxane A2 receptor, `CCCCC[C@H](O)/C=C/[C@H]1C2COC(C2)[C@@H]1C/C=C\CCCC(=O)O` (some centres not stated) showed an IC50 of 37 nM and a Ki of 16 nM.
In [1], `COc1cc(CC(C)N)c(OC)cc1I` (racemic) registered an IC50 of 3.5 nM and an inhibition constant Ki of 3.5 nM.
Regarding `Nc1nc2c(c(N3CCNCC3)n1)CCC1=C2[C@@H]2CCCC[C@@H]2O1` (relative stereo), the figures for the Cmax in “in vivo [2]” and in the data set “in vivo [21]” were 0.3 µM and 1.73 µM, respectively. Further, the ED50 in the data set listed under Mus musculus [3] is 0.36 µmol/kg; in the data set listed under Rattus norvegicus [20] it was 42 µmol/kg. Also, the values for the bioavailability in “in vivo [4]” and in “in vivo [15]” were 72% and 26%, respectively. Also, the Ki on Histamine H3 receptor [5] is 933 nM; on Histamine H3 receptor [9] it was 13.5 nM; at Substance-K receptor, 3.1 nM; at Histamine H1 receptor, 3550 nM; at Histamine H2 receptor, above 9120 nM; on Vasopressin V1a receptor it was 2.4 nM. Also, the values for the Ki (in [16]; on Histamine H4 receptor [19]; at Histamine H4 receptor [22]) were 0.043 nM, 5.75 nM and 3.39 nM, respectively. Further, the half-life in “in vivo [6]” is 3.7 h; in the data set “in vivo [14]”, 4.7 h. The pKb in data set [7] stood at 8.3; in data set [13], 8.2; at Histamine H4 receptor [23], 8.33. The Tmax was determined as 1.5 h in “in vivo [8]” and 0.25 h in “in vivo [17]”. The Cp was 2.9 µg/mL in the data set listed under Rattus norvegicus [10], 0.61 µg/mL in the data set listed under Rattus norvegicus [12] and 0.015 µg/mL in the data set listed under Mus musculus [18]. Moreover, the IC50 was found to be 11700 nM in [11]; 5.7 nM against Substance-K receptor; 3.9 nM against Vasopressin V1a receptor; 0.087 nM in data set [16]; 125 µmol/kg in the data set listed under Mus musculus [24]. Also, in “in vitro”, the fraction unbound is 0.41.
With `C[N+]1(C)CCC(OC(=O)C(c2ccccc2)c2ccccc2)CC1` [4-DAMP], in data set [25], the IC50 was determined as 0.83 nM and the Ki was found to be 0.42 nM.
For `CC(C)C[C@@H]1NC(=O)[C@H](C)NC(=O)[C@H]([C@@H](C)O)NC(=O)[C@H](CCC(=O)O)NC(=O)[C@@H]2CCCN2C(=O)[C@H](C)NC(=O)[C@H](CCCCN)NC(=O)[C@@H]2CSSC[C@@H](C(=O)N[C@@H](CCC(N)=O)C(=O)N[C@@H](CCC(N)=O)C(=O)N[C@@H](Cc3cnc[nH]3)C(N)=O)NC(=O)[C@H](CCCNC(=N)N)NC(=O)[C@H](CCCNC(=N)N)NC(=O)[C@H](C)NC(=O)[C@H](CSSC[C@H](N)C(=O)N[C@@H](CC(N)=O)C(=O)N2)NC1=O` [APAMIN], in data set [26], the IC50 is 0.014 nM and the Ki turned out to be 0.0068 nM.
In turn, `CN1CCN(C(=O)c2cc3cc(Cl)ccc3[nH]2)CC1` [JNJ-7777120] gave a Ki at Histamine H2 receptor above 8510 nM.
As to `COc1cc(OC)c(C(=O)CCCCN2CCC3(CC2)NC(=O)NC3=O)cc1NS(=O)(=O)c1ccc(C(F)(F)F)cc1` [RS-102,221], in [27], the IC50 worked out at 8.3 nM and the Ki was 3.9 nM.
